Here are results for one compound from paper PMC8344022, “Small-molecule inhibitor of AF9/ENL-DOT1L/AF4/AFF4 interactions suppresses malignant gene expression and tumor growth” (Theranostics, 2021).

SMILES strings stand for the structures. Read-outs that look alike come from different tables or passages of the source.

One data set deals with T1, AF9-AFF4 interaction (Homo sapiens, UniProt P42568).
T1 construct: cDNA for human AF9 AHD domain (475-568) and ENL AHD domain (489-559) was synthesized; made in house; host or cells: E. coli BL21(DE3)
In words: Alpha assay, AF9-AFF4 interaction. The class given is binding. To be noted: read-out: IC50, inhibition of AF9-AFF4 interaction. The method, then:
ENL is also a major MLL fusion partner (~10%). The AHD domains of human ENL and AF9 share a high homology with 82% identity and 89% similarity (Figure S1A). […] Our attempts to develop an Alpha assay for ENL-DOT1L failed. […] Compound 1's activity against ENL-DOT1L was therefore not determined.
(§1) Alpha assays. Alpha assays were developed using Perkin-Elmer AlphaLisa anti-MBP kit, which contains streptavidin donor beads and anti-MBP acceptor beads. The assay was performed using a MBP-protein (5 nM), a biotinylated peptide (40 nM), and increasing concentrations of a compound in 25 µL buffer (PBS with 0.5 % BSA, pH 7.5) in 384-well plates according to the manufacturer's protocol and measured with a Tecan SPARK microplate reader. Data were imported into Prism (version 5.0), and IC50 values from 3 independent experiments with standard deviation were obtained by using a standard dose-response curve fitting.

Data set [1] has as its system nuclear protein levels in MV4;11 cells. Kind of data set: Western blot of nuclear proteins. The data set is classed as cell-based. The method, then:
Western blot. 3x10^6 cells/well were treated with increasing concentrations of a compound for 3 days and nuclear proteins extracted with the EpiQuik Nuclear Extraction Kit (Epigentek) according to the manufacturer's protocol. Equal amounts of proteins were separated on SDS-PAGE and transferred to PVDF membranes. The blots were probed with primary antibodies, followed by anti-rabbit or anti-mouse IgG (Thermo Scientific) secondary antibodies. The primary antibodies used in this research were MBP Mouse mAb (#2396, Cell signaling), DOT1L Rabbit mAb (#77087, Cell signaling), MLL-N Rabbit mAb (#14689, Cell signaling), ENL Rabbit mAb (#14893, Cell signaling), Di-Methyl-Histone H3K79 Rabbit mAb (#5427, Cell signaling), Mono-Methyl-Histone H3K79 Rabbit mAb (#9398, Cell signaling), Histone H3 Rabbit mAb (#4499, Cell signaling), AF4 Rabbit pAb (#NBP1-28705, Novusbio) and AFF4 Rabbit pAb (#ab103586, Abcam).
For orientation: Immunoblotting shows a protein as a band on a membrane.

Another data set has as its target T2, AF9-DOT1L interaction (Homo sapiens, UniProt P42568).
T2 construct: cDNA for human AF9 AHD domain (475-568) and ENL AHD domain (489-559) was synthesized; made in house; host or cells: E. coli BL21(DE3)
T2 sequence (P42568 475-568): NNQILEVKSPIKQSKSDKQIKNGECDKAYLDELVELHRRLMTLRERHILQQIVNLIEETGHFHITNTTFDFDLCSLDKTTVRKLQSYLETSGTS
In words: Alpha assay, AF9 AHD-DOT1L peptide interaction. To be noted: read-out: IC50, inhibition of AF9-DOT1L interaction. The class given is binding.
Text: We developed an Alpha (amplified luminescent proximity homogeneous assay) assay to determine the binding and inhibition of the PPI between maltose-binding protein (MBP)-tagged AF9 AHD and a biotin-labeled DOT1L peptide, using AlphaLisa streptavidin donor beads and anti-MBP acceptor beads. Laser excitation to the donor beads generates singlet oxygen radicals, which can travel for <200 nm in solution and cannot reach the free acceptor beads. The PPI brings the DOT1L coated donor beads and AHD coated acceptor beads together, allowing the radicals to activate the acceptor beads and produce luminescence. […] We also developed a fluorescence polarization (FP) assay. A fluorescein-labeled DOT1L peptide has a higher freedom in solution with a lower polarization value.
as §1

The subject of a further data set is cancer cells. Kind of data set: Antiproliferation assays, cancer cell panel. The class given is cell-based. The method, then: The differential antiproliferation activities of compound 1 is consistent with its ability to suppress DOT1L/H3K79 methylation and SEC regulated gene expression, which are critical to MLL-r leukemia and Myc-driven blood cancer, but largely dispensable to other solid tumor cells.
(§2) Antiproliferation assay. Proliferation inhibition assays for suspension blood cancer cells were performed using an XTT assay kit (Roche). Proliferation inhibition assays for solid tumor cell lines MCF-7, MDA-MB-231, Panc1, Panc28 were performed using an MTT assay (Sigma). The antiproliferation EC50 values were determined using Prism 5 and the reported results were the mean values of at least three independent experiments. The incubation time for compound 1 was 7 days and that for EPZ4777 was 14 days.

The subject of a further data set is MDA-MB-231 cells. In words: Antiproliferation assay (MTT). The data set is classed as cell-based. To be noted: Homo sapiens, 168 h, 7-day incubation, read-out: Cytotoxicity EC50. On the procedure:
as §2

The next data set concerns MCF-7 cells. Kind of data set: Antiproliferation assay (MTT). The data set is classed as cell-based. To be noted: Homo sapiens, MCF7, 168 h, 7-day incubation, read-out: Cytotoxicity EC50. The method, then:
as §2

In the next data set the test system is Panc-1 cells. Kind of data set: Antiproliferation assay (MTT). The data set is classed as cell-based. To be noted: Homo sapiens, 168 h, 7-day incubation, read-out: Cytotoxicity EC50. The method, then:
as §2

A further data set deals with Panc-28 cells. In words: Antiproliferation assay (MTT). The data set is classed as cell-based. To be noted: 168 h, 7-day incubation, read-out: Cytotoxicity EC50. The method, then:
as §2

The next data set relates to Molm-13 cells. Kind of data set: Flow cytometry for CD14 and CD11b (differentiation). The data set is classed as cell-based, human. To be noted: 5 μM for 5 days. The method, then:
Compound 1 (5 μM for 5 days) induced significant differentiation, with more cell populations expressing CD14 and CD11b, two cell surface proteins for macrophages/monocytes (Figure 5B).
Flow cytometry. For Annexin V apoptosis assay, 10^5 cells/ml were incubated with increasing concentrations of a compound for 5 days. Apoptosis was determined using the FITC Annexin V Apoptosis Detection Kit I (BD Bioscience) using the manufacturer's protocol. For other FACS assays, cells were labeled with fluorochrome-conjugated monoclonal antibodies against human CD14 and CD11b (BD Biosciences) according to the manufacturer's recommendation. Cells were analyzed using a FACS Calibur (BD Biosciences/Applied Biosystems) and data were processed using the program Flowjo (version7.6.5).

Data set [2] is described as follows: Tolerability in xenograft study (body weight, overt toxicity). The class given is in vivo. On the procedure: In vivo antitumor activity of compound 1 was evaluated in a commonly used mouse model of MLL-r leukemia, [26]. 10^7 MV4;11 cells in 0.1 mL of saline and Matrigel (1:1) were injected subcutaneously into NOD-SCID mice, which can develop palpable tumors in ~2 weeks.
In vivo antitumor studies. All of the mouse studies were conducted in strict compliance with an IRB-approved protocol. NOD-SCID mice (4 to 6 weeks old, from Jackson lab) were obtained and maintained under specific pathogen-free conditions. 10^7 MV4;11 cells in medical grade saline and Matrigel (1:1, 0.1 mL) were inoculated subcutaneously and palpable tumors (2-3 mm in diameter) were developed in ~ 2 weeks. Mice were treated with compound 1 (15 mg/kg/day for 10 days) in saline (0.1 mL) administered intraperitoneally. Tumors were measured every 2 days and estimated by using the formula a×b^2/2.

The IC50 is the midpoint of a concentration-inhibition curve. Regarding `CC(C)(C)c1ccc(-n2cc(C(=O)NC3CCNCC3)nc2-c2ccccc2)cc1` [Compound 1], the concentration for half-maximal inhibition (IC50) at AF9-AFF4 interaction turned out to be 2.5 ± 0.1 µM; at AF9-DOT1L interaction it was 3.5 µM. Besides, the “Nuclear level of AFF4” value in [1] (10 μM) is “did not cause significantly decreased AFF4”. Further, the “Nuclear protein levels of H3K79me1 and me2 and ENL” value in data set [1] (3 days) was “reduced the nuclear protein levels of H3K79me1 and me2 and ENL”. In addition, the EC50 was 3 to 11 µM with cancer cells (168 h, MLL-r leukemia (MV4;11, Molm-13, THP-1) and Myc-driven blood cancer cells, 7 days, read-out: EC50 against proliferation (range)); 4.7 to 11 µM in the data set with cancer cells (MLL-r leukemia cells Molm-13, MV4;11 and THP-1, read-out: EC50s against proliferation (range)); 3.3 to 9.7 µM in the data set on cancer cells (Myc-driven blood cancer cells HL60, Kasumi-1, Jurkat, RPMI8226, U266, read-out: EC50s against proliferation (range)); 13.5 ± 0.2 µM in the data set on MDA-MB-231 cells; 19.8 ± 0.3 µM in the data set on MCF-7 cells; 15.1 ± 0.2 µM in the data set with Panc-1 cells. The EC50 in the data set on Panc-28 cells stood at 23.8 ± 0.2 µM. The “Antiproliferative activity against solid tumor cells” value in the data set on cancer cells (MCF-7, MDA-MB-231 and two pancreatic cancer cells) was “reduced activity”. In the data set with Molm-13 cells, the “Differentiation: cells expressing CD14 and CD11b” value is “significantly more cells expressing high levels of CD14 and CD11b”. In addition, the Body weight result in data set [2] (15 mg/kg for Day 1-10) was “did not cause significant weight losses”. In [2] (mouse model of MLL-r leukemia, 15 mg/kg), the Overt toxicity result was “without overt toxicity”.
